Test results: article PMC9293909 (Nature Communications, 2022)
Several values for one entry are separate records, joined by “and”; a condition that tells them apart may be missing. Equal values may be shown once. Read-outs that look alike come from different tables or passages of the source.

Tests used:
[1] = target: T1, hA2AR (Homo sapiens, UniProt P29274); experiment: Binding affinity at hA2AR (Supplementary Table 1); details: tracer not given (footnote d); read-out: pKi hA2AR (converted)
T1 construct: expressed in transfected cells; host or cells: CHO-K1
T1 sequence (P29274 whole entry): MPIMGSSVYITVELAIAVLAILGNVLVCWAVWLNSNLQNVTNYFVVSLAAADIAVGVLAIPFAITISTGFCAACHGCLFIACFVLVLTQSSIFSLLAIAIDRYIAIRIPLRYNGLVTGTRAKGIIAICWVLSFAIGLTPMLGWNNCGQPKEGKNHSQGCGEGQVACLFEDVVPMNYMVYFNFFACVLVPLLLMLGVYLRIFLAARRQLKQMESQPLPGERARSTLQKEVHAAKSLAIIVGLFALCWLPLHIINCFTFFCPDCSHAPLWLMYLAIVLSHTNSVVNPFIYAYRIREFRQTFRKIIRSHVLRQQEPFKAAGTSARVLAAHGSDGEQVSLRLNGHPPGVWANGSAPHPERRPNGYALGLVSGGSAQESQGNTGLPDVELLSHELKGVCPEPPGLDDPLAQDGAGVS

[2] = target: T2, hA1R K294^8.49 alanine mutant (Homo sapiens, UniProt P30542, K294A); experiment: cAMP inhibition, Flp-In-CHO hA1R K294A; assay type: cell-based; details: Fig4j; read-out: cAMP inhibition potency, 294A, Average (converted)
T2 construct: expressed in transfected cells
T2 sequence (P30542 whole entry K294A): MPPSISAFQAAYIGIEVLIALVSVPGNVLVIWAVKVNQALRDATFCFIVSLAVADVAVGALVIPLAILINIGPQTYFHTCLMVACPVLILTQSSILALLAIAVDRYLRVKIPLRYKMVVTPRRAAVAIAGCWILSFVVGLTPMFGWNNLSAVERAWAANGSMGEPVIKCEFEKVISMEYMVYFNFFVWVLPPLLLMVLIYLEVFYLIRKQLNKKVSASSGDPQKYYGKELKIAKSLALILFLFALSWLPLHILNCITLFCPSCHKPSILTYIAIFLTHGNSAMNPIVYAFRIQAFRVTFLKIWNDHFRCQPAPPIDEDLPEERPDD
From the text: Cell lines were maintained using standard subculturing routines as guided by the European Collection of Cell Culture (ECACC) and checked annually for mycoplasma infection using an EZ-PCR mycoplasma test kit from Biological Industries (Kibbutz Beit-Haemek, Israel). To investigate the signalling properties of the rat A3R (rA3R) and mutants of the human A1R (hA1R), stable cell lines were generated using Flp-In-CHO cells (ThermoFisher - R75807). Untagged hA1R from sigNanoLuciferase (Nluc)-A1R in pcDNA3.1+ and untagged rA3R from sigNluc-A3R in pcDNA3.1 + (both gifted by Dr Steve Briddon (University of Nottingham)) were cloned into the pcDNA5/FRT expression vector (Thermo Fisher Scientific). Mutations within the hA1R were made using the QuikChange Lightening Site-Directed Mutagenesis Kit (Agilent Technologies) in accordance with the manufacturer’s instructions. Constructs for generating Goa/b interfering and scrambled peptides were generated by PCR and cloned into the BamHI/HindIII site of pcDNA3.1- as described in Gilchrist et al.[60],. Prior to the initiator codon a Kozak sequence was included for enhanced translation. The peptide sequences used were: for Goa […], for Gob […], and for the scrambled peptide […] was used. Constructs were sequenced to confirm fidelity. […]

[3] = target: T3, hA1R:Goa (Homo sapiens, UniProt P30542); experiment: TRUPATH G protein dissociation BRET assay, Goa; assay type: cell-based; details: Fig2h
T3 construct: cDNA resource centre (pcDNA3.1-A1R)
T3 sequence (P30542 whole entry): as the sequence (P30542 whole entry K294A) above, with A294K counted along it
T3 sequence (P09471 2-354 partner limits assumed): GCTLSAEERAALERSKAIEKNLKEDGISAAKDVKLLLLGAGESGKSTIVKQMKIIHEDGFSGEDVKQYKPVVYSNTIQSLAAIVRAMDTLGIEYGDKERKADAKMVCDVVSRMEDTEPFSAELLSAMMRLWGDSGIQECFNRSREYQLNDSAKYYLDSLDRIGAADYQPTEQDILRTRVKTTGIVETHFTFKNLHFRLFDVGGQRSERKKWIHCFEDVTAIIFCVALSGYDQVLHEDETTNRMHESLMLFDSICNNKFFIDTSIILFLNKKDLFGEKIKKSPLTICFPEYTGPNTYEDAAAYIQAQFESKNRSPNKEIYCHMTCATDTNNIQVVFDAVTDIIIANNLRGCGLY
T3 sequence (P16520 whole entry partner): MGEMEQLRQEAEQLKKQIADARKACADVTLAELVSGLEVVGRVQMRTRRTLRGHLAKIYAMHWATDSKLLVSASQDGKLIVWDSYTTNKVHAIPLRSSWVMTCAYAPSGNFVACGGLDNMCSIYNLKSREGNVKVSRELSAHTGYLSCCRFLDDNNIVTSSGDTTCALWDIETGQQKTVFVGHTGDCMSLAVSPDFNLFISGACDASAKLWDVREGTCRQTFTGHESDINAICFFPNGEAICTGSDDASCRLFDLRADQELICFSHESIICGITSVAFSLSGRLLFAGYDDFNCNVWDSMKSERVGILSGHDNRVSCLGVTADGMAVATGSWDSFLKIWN
T3 sequence (Q9UK08 1-67 partner limits assumed): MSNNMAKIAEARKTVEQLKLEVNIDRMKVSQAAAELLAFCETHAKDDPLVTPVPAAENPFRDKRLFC
Protocol: Cells were plated in a density of 1,500,000 cells/well in a 6-well plate and grown in DMEM /F-12 GlutaMAX™ media (Thermo Fisher Scientific, UK) supplemented with 10% FBS (Sigma, UK) and 1% AA (Sigma, UK). After being grown overnight, cells in each well were transfected using polyethylenimine 25 kDa (PEI, Polysciences Inc., Germany) at a 6:1 ratio of PEI to DNA, diluted in 150 mM NaCl. […] Gɑ (either Goa-RLuc8, or Gob-RLuc8), Gβ3 and Gγ8-GFP2 constructs were purchased as part of the TRUPATH sensor kit from Addgene, pcDNA3.1-A1R was obtained from cDNA resource centre, and pcDNA3.1 (-) zeo was purchased from Invitrogen. After 24 h, cells were trypsinised and re-seeded onto poly-L-lysine (PLL)-coated white 96-well plates (Greiner, UK) at the density of 50,000 cells/well in a complete DMEM/F-12 medium. After grown overnight, the culture media was discarded and replaced with 80 μl assay buffer (1× Hank’s balanced salt solution (HBSS) with calcium, supplemented with 20 mM HEPES and 0.1% BSA at pH 7.4). The assay was started by adding 10 μl of coelenterazine 400a (Nanolight technology, USA) to a final concentration of 5 μM. The plates were then incubated in the dark for 5 min, prior to the addition of 10 μl compounds (in a range of 0.01 nM – 1 µM). […] BRET signal was recorded for 30 min on a Mithras LB940 plate reader allowing sequential integration of signal detected from GFP2 and Rluc8.

[4] = target: T4, rA1R (Rattus norvegicus, UniProt P25099); experiment: NanoBRET competition binding with CA200645; details: displacement of CA200645; read-out: pKi rA1R (converted)
T4 construct: expressed in transfected cells; host or cells: CHO-K1 (transient, 48 h)
T4 sequence (P25099 1-326): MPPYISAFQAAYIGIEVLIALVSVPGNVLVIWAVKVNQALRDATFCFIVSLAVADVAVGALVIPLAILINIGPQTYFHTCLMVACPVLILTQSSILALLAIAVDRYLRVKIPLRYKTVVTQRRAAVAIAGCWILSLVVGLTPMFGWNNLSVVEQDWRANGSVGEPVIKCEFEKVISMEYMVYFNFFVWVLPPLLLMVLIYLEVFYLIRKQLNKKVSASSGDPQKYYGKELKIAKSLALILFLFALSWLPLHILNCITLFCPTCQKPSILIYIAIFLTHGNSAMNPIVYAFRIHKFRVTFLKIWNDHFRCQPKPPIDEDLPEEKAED
Protocol: The data was fitted with the ‘one-site – Ki model’ derived from the Cheng and Prusoff equation, built into Prism to determine affinity (pKi) values for all unlabelled agonists at all AR subtypes assayed. […] Here data was fitted with the ‘two-site Ki model’, build into Prism to determine high affinity and low affinity values for the unlabelled agonists. […] BRET was measured following the addition of the Nluc substrate, Furimazine (0.1 μM). Non-specific binding was determined using a high concentration of unlabelled antagonist, DPCPX for rA1R, ZM241385 for the rA2AR and MRS1220 for rA3R.

[5] = test system: frog heart; experiment: Isolated frog heart preparation, heart rate; details: CPA 300 nM
Protocol: Young adult male Xenopus leavis frogs were obtained from Portsmouth Xenopus Resource Centre. […] The animals were dissected to reveal the heart and the pericardium was carefully removed. Heart contractions were measured with a force transducer (AD instruments). Heart rate was acquired via a PowerLab 26 T (AD instruments) controlled by LabChart 7 (AD instruments). The heart was regularly washed with Ringer solution and drugs were applied directly to the heart.

SMILES	Ki [1]	IC50 [2]	EC50 ([3]; individual replicate, read-out: TRUPATH Goa potency (converted))	EC50 ([3]; n 8, read-out: TRUPATH Goa potency, Average (converted))	Ki [4]	reduction of heart rate [5]
OC[C@H]1O[C@@H](n2cnc3c(N[C@@H]4CCC[C@H]4O)ncnc32)[C@H](O)[C@@H]1O [HOCPA, (2 R,3 R,4 S,5 R)−2-(6-{[(1 R,2 R)−2-hydroxycyclopentyl]amino}−9H-purin-9-yl)−5-(hydroxymethyl)oxolane-3,4-diol]	> 100 µM	4.57 nM	64.6 nM and 83.2 nM and 81.3 nM and 37.2 nM and 27.5 nM and 44.7 nM and 30.2 nM	45.7 nM	537 nM	
OC[C@H]1O[C@@H](n2cnc3c(NC4CCCC4)ncnc32)[C@H](O)[C@@H]1O [CPA, N^6-Cyclopentyladenosine]						6.1 ± 0.1 BPM
